Measurements taken from patent US9889135B2, “Companion diagnostic for CDK4 inhibitors” (Memorial Sloan-Kettering Cancer Center, priority 2013, dated 2018).

Key:
seven WD/DDLS cell lines = assay: cell size, phalloidin staining and flow cytometry; type: cell-based, human; settings: continued treatment, all seven cell lines
Method: FIGS. 10A-C. […] Cells were plated at a concentration of 25,000 per well in a 4-well chamber slides (Lab-Tek) and treated for seven days with drug or shRNA as described above and stained for senescence-associated β-galactosidase (Cell Signaling kit #9860). Cell number was quantitated by DAPI staining and β-galactosidase staining quantitated as a proportion of total cells. Senescence associated heterochromatic foci were quantitated after cells were fixed with 4% paraformaldehyde, permeabilized with 0.1% Triton, blocked with 2% FBS, and stained with antibodies against HP1γ (1:5000 dilution, 2MOD-1G6 Millipore). Senescent cells were identified by immunofluorescence after treatment of slides with anti-mouse secondary antibodies and quantitation of focal SAHF as a percent of total cells (Leica Upright Confocal SP5 confocal microscope). Actin was marked using phalloidin staining (1:500, Invitrogen) and cells were counterstained with DAPI. Cell area was measured by with Metamorph software to calculate relative area per cell.

[1] = test system: cytokine secretion of LS8313 cells; assay: human cytokine array (SASP); type: cell-based; settings: 1 μM, seven days
Method: (§1) FIG. 16. […] Human cytokine arrays were purchased from R&D Technologies (ARY006). […] The media was changed 24 hours prior to harvest. On the day of harvest, the media was collected, spun for 5 minutes at 1200 rpm and filtered through a […] syringe to remove debris. Cells were trypsinized and counted and media volume was adjusted so that an equal number of cells were represented from each sample. Cytokine arrays were performed according to manufacturer's protocol. Signal intensity was measured using ImageJ and a log2 value of the PD/CTRL ratio was calculated.

[2] = test system: cytokine secretion of LS8817 cells; assay: human cytokine array (SASP); type: cell-based; settings: 1 μM, seven days
Method: as §1

[3] = test system: catalase in WD/DDLS cell lines; assay: catalase expression by immunoblot; type: cell-based, human; settings: two senescing and two non-senescing cell lines
Source text: FIG. 22. Additional immunoblot analysis in responder and non-responder cells. […] Actin is a loading control. This experiment was repeated at least three times for each cell line.

[4] = test system: CEBPα, FABP4 and PPARγ mRNA in LS8107 and LS7785-10 cells; assay: adipocyte differentiation marker mRNA; type: cell-based, human; settings: seven days
Method: FIG. 11. […] Cell lines were maintained in DMEM High glucose (HG) supplemented with 10% heat-inactivated fetal bovine serum. Glioma cell lines, DKMG, SNB19, DBTRG-05MG, and […], were maintained in DMEM HG supplemented with 10% fetal bovine serum and 2 mM glutamine. The MCF7 breast cancer cell line was maintained in RPMI-1640 media supplemented with 10% fetal bovine serum and 2 mM glutamine.

LS6736 cells = assay: SA-β-gal and HP1γ staining in LS6736; type: cell-based, human; settings: LS6736 (MDM2 amplified, CDK4 not); seven days
Method: Cells were plated at a concentration of 25,000 per well in a 4-well chamber slides (Lab-Tek) and treated for seven days with drug or shRNA as described above and stained for senescence-associated β-galactosidase (Cell Signaling kit #9860). Cell number was quantitated by DAPI staining and β-galactosidase staining quantitated as a proportion of total cells. Senescence associated heterochromatic foci were quantitated after cells were fixed with 4% paraformaldehyde, permeabilized with 0.1% Triton, blocked with 2% FBS, and stained with antibodies against HP1γ (1:5000 dilution, 2MOD-1G6 Millipore). Senescent cells were identified by immunofluorescence after treatment of slides with anti-mouse secondary antibodies and quantitation of focal SAHF as a percent of total cells (Leica Upright Confocal SP5 confocal microscope). Actin was marked using phalloidin staining (1:500, Invitrogen) and cells were counterstained with DAPI. Cell area was measured by with Metamorph software to calculate relative area per cell.

[5] = test system: MDM2 in LS0082, LS141 and LS8817 cells; assay: MDM2 turnover (cycloheximide chase), responder cells; type: cell-based, human; settings: 1 μM for 48 hrs, then cycloheximide
Method: The level of MDM2 was measured by immunoblot (center). Tubulin was a loading control. […] This experiment was repeated at least three times on different biologic replicates. […] Tubulin is a loading control. Data compiled from at least three independent experiments is plotted (mean and standard deviation) and a representative immunoblot is shown. […] The graphs are compiled from the data obtained in three independent biologic replicates and representative autoradiographs are shown.

[6] = test system: MDM2 in WD/DDLS tumor biopsies; assay: MDM2 in pre- and post-treatment patient biopsies by immunoblot; type: in vivo, human
Method: FIG. 7. […] GAPDH serves as a loading control.
Antibodies against CDK4 (3F121), MDM2 (N-20 and SMP14), total RB (IF8), Cyclin A (H432), p16 (C20), p53 (DO-1 and Bp53-12), tubulin (C20) and FLAG (M2) were obtained from Santa Cruz Biotechnology, phospho-Rb 780 (#9307) from Cell Signalling, and ARF (3642) from Abeam, HAUSP (A300-033A) from Bethyl Laboratories. Treated cells were lysed with buffer composed of 50 mM Tris-HCl, pH7.4, 250 mM NaCl, 5 mM EDTA, 0.5% NP40, 2 mM PMSF, and supplemented with protease inhibitors. Eighty micrograms of protein were resolved by SDS-PAGE and transferred to PVDF membranes. Membranes were incubated overnight with antibodies (1:1000). […] Pre-treatment biopsies were collected within two weeks of the first dose and post-treatment biopsies collected after at last three weeks of treatment. […] Tumor response was assessed by reference radiologist by CT scan every six weeks for 36 weeks, and every 12 weeks thereafter.
Extracts were prepared in 50 mM Tris-HCl, pH7.4, 150 mM NaCl, 1 mM EDTA, 1% NP40, 0.25% sodium deoxycholate and supplemented with mini-protease inhibitor cocktail (Roche). Tumor response was assessed by reference radiologist by CT scan every six weeks for 36 weeks, and every 12 weeks thereafter.

For `CC(=O)c1c(C)c2cnc(Nc3ccc(N4CCNCC4)cn3)nc2n(C2CCCC2)c1=O` [PD0332991], the “cell size / cell volume” value (seven WD/DDLS cell lines) was “enlarged”, the SASP cytokine secretion [1] was “only IL-6 secretion increased” and the “MIF-1 and PAI-1 secretion” value [2] was “essentially unchanged”. For the same compound, the “secretion of GM-CSF, GROα/CXCL1, IL-6, IL-8 and MCP-1” value [2] was “upregulated”, the catalase expression [3] was “increased” and the “CEBPα, FABP4 and PPARγ mRNA, markers of differentiated adipocytes” value [4] was “None of these markers increased”. The “number of SA-β-gal and SAHF (HP1γ) positive cells” value (LS6736 cells) was “did not increase”, the “MDM2 stability / protein half-life” value [5] was “markedly reduced” and the “MDM2 levels in post- versus pre-treatment biopsies” value ([6]; patients 1, 4, 7, and 8) was “reduced”. For the same compound, the “MDM2 levels in post- versus pre-treatment biopsies” value ([6]; patients 2, 3, and 9) was “unaffected”.
